US20040053786A1, “Insecticidal 1,8-naphthalenedicarboxamides” (priority 2000, published 2004)

melting point: 215 °C
Compound: CNC(=O)c1cccc2cccc(NC(=O)c3cccs3)c12 [Compound 120, N-methyl 8-[(2-thienyl)carbonylamino]-1-naphthalenecarboxamide]
